Results taken from PMC4389225, “Triaminopyrimidine is a fast-killing and long-acting antimalarial clinical candidate” (Nature Communications, 2015).

Assays:
hERG = biological target: T1, hERG (Homo sapiens, UniProt Q12809); assay: electrophysiology-based hERG assay using IonWorks HT (CHO cells); type: cell-based; details: hERG IC50
T1 construct: expressed in transfected cells; host or cells: CHO cells
Description: hERG IC50 was determined in an electrophysiology-based hERG assay using IonWorks HT (CHO cells) as described earlier.

Caco2 permeability = details: human, Caco-2
[1] = Rat blood PK, IV and oral; type: in vivo; details: Wistar, rat, whole blood, oral, 10 mg/kg, rat; read-out: Rat F (bioavailability)
Description: Blood samples were collected at 0.083, 0.25, 0.5, 1, 2, 4, 8, 23, 32, 48, 55 and 72 hours after an IV dose of 2 mg/kg or an oral dose of 10 mg/kg. Oral administration was done using oral gavage at a maximum dose volume of 10 mL/kg. Solution formulation containing 10% NMP, 20% DMA in dextrose / normal saline was used for IV administration and a suspension in 0.5% w/v HPMC with 0.1% v/v Tween 80 was used for oral administration. 25 µl of blood samples were mixed with 100 µL of Milli-Q water and vortexed for 5 minutes in the plate shaker at a speed of 900 rpm to ensure complete hemolysis. Proteins were precipitated by adding 125 µL of cold acetonotrile containing internal standard. After extraction on a plate shaker for 10 minutes at 900 rpm, the plate was centrifuged at 4000 rpm for 20 minutes. The supernatant (180 µL) was transferred to another plate and 2.5 µL of Zinc sulphate (200 mM) was added to separate the heme fraction. This mixture was centrifuged and 10 µL of the supernatant was analyzed by LC-MS/MS. […]

Pf W2 = assay: microbe, parasite or virus in culture; type: cell-based; details: Plasmodium falciparum
Source text: (§1) tested in duplicate from two independent experiments using a SYBR-Green based assay2.
(§2) (1 picture or pasted object on this page, not shown here)

Pf 7G8 = assay: microbe, parasite or virus in culture; type: cell-based; details: Plasmodium falciparum
Source text: as §1, §2

Pf K1 = assay: microbe, parasite or virus in culture; type: cell-based; details: Plasmodium falciparum
Source text: as §1, §2

Pf NF54 = assay: microbe, parasite or virus in culture; type: cell-based; details: Plasmodium falciparum
Source text: as §1, §2

Pf SB1 = assay: microbe, parasite or virus in culture; type: cell-based; details: Plasmodium falciparum
Source text: as §1, §2

Pf DD2 = assay: microbe, parasite or virus in culture; type: cell-based; details: Plasmodium falciparum
Source text: as §1, §2

α1A adrenoceptor = biological target: T2, α1A adrenoceptor (Homo sapiens, UniProt P35348); assay: α1A adrenoceptor radioligand binding (CEREP)
T2 construct: purchased CEREP, France (external assay service) 2338
T2 sequence (P35348 1-466): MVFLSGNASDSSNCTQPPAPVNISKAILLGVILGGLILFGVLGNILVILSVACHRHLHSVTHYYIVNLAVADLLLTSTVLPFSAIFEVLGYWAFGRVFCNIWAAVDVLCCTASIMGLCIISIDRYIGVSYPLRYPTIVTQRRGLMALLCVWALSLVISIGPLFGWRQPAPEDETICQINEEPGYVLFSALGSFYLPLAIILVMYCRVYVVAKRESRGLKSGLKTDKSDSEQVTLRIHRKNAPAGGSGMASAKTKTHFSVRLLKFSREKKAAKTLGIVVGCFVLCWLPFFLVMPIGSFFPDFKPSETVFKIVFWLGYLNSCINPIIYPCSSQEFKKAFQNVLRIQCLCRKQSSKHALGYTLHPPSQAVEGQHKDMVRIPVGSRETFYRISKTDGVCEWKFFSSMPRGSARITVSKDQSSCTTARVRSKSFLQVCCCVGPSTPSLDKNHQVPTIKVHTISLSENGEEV
Description: (§3) An in vitro pharmacological profiling panel was specifically designed for the detection of potential high- risk clinical adverse drug reactions. The panel comprised of 26 diverse targets (6 enzymes, 2 transporters, 9 G-protein-coupled receptors (GPCRs), 5 ion channels along with hERG, M2, alpha1A and AchE) and was conduced externally by CEREP, France […]. […] Detailed methodology for in vitro pharmacological profiling assays provided by CEREP can be found at http://www.cerep.fr, with specific reference to the AChE (cat. no. 0363), Muscarinic M1 receptor (cat. no. 0091) and Adrenergic α1A receptor (cat. no. 2338) assays. For enzyme and kinase assays, the results were expressed as a percent inhibition of control-specific activity obtained in the presence of the test compound. The IC50 values (concentration causing a half-maximal inhibition of control-specific activity) and Hill coefficients (nH) were determined by nonlinear regression analysis of the inhibition/concentration–response curves using Hill equation curve fitting as described earlier.
(§4) For radioligand binding assays, the results are expressed as % inhibition of control-specific binding obtained in the presence of the test compounds. The IC50 values (concentration causing a half-maximal inhibition of control-specific binding) and Hill coefficients (nH) were determined by nonlinear regression analysis of the competition curves generated with mean replicate values using Hill equation curve fitting. The inhibition constants (Ki) were subsequently calculated by applying the Cheng Prusoff equation[38].

Muscarinic M2 receptor = biological target: T3, Muscarinic M2 receptor (Homo sapiens, UniProt P08172); assay: Muscarinic M2 receptor radioligand binding (CEREP)
T3 construct: purchased CEREP, France (external assay service)
T3 sequence (P08172 1-466): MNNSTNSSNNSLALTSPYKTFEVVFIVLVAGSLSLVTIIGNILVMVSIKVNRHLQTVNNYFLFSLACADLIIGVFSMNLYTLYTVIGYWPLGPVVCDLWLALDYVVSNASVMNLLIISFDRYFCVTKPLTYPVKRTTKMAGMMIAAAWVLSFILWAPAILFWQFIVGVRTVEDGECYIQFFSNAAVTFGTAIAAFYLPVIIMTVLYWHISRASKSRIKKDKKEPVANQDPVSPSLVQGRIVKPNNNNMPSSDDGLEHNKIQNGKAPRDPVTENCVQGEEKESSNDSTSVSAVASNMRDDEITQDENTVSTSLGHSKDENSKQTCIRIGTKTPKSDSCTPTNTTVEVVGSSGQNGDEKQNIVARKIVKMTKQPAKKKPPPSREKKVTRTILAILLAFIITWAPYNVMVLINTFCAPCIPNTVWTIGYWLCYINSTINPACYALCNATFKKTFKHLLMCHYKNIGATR
Description: as §3, §4

[2] = test system: asexual blood stage of Pf; assay: Pf asexual blood stage potency (Pf IC50); type: cell-based, Plasmodium falciparum; details: Plasmodium falciparum
Source text: The TAPs series emerged from a high-throughput screen (HTS) of 500,000 compounds from the AstraZeneca corporate library against the asexual blood stage of Pf using a high-content image-based approach. The procedure for synthesis of compounds 1-6, 10, 11 using a scheme similar to Fig. 1 is provided in Supplementary Note 1. The initial hit provided multiple diversification points for a robust lead optimization campaign. […] Compounds with 2-pyridyl modification at the 2-amino position of pyrimidine core improved potency and solubility at the cost of potent activity against hERG and acetylcholine esterase (AChE; compounds 3-6; Table 1). […] The observed hERG and AChE selectivity improvement with 7 could be attributed to the polar nature of the pyrazole group and its role in reducing the pKa of the core pyrimidine ring. […] To assess the potential for cross-resistance, representative TAPs were screened against a panel of clinical isolates and in vitro-generated mutant strains displaying varying mechanisms of resistance to antimalarial agents currently in use and under development, respectively, (Supplementary Tables 1–3).

[3] = biological target: T4, acetylcholine esterase (AChE) (Homo sapiens, UniProt P22303); assay: AChE enzyme activity assay (CEREP); type: biochemical; details: read-out: AChE IC50
T4 construct: purchased CEREP, France (external assay service) 0363
T4 sequence (P22303 32-614): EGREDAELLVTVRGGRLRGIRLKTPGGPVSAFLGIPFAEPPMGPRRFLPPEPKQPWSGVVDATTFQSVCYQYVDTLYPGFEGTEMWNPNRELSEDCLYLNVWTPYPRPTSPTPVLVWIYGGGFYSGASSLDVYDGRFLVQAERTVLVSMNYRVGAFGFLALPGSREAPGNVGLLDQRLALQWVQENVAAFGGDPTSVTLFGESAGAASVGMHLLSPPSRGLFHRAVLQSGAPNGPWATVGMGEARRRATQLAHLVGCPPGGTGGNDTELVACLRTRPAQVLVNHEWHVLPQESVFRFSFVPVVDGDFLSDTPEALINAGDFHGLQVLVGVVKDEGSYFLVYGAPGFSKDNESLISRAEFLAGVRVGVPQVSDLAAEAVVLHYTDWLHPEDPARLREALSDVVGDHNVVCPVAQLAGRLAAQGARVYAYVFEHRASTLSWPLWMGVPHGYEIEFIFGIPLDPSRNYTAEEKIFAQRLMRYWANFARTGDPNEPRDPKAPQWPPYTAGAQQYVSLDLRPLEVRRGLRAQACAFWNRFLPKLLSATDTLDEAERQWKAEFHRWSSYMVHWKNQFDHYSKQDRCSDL
Description: as §3

T1 sequence (Q12809 whole entry): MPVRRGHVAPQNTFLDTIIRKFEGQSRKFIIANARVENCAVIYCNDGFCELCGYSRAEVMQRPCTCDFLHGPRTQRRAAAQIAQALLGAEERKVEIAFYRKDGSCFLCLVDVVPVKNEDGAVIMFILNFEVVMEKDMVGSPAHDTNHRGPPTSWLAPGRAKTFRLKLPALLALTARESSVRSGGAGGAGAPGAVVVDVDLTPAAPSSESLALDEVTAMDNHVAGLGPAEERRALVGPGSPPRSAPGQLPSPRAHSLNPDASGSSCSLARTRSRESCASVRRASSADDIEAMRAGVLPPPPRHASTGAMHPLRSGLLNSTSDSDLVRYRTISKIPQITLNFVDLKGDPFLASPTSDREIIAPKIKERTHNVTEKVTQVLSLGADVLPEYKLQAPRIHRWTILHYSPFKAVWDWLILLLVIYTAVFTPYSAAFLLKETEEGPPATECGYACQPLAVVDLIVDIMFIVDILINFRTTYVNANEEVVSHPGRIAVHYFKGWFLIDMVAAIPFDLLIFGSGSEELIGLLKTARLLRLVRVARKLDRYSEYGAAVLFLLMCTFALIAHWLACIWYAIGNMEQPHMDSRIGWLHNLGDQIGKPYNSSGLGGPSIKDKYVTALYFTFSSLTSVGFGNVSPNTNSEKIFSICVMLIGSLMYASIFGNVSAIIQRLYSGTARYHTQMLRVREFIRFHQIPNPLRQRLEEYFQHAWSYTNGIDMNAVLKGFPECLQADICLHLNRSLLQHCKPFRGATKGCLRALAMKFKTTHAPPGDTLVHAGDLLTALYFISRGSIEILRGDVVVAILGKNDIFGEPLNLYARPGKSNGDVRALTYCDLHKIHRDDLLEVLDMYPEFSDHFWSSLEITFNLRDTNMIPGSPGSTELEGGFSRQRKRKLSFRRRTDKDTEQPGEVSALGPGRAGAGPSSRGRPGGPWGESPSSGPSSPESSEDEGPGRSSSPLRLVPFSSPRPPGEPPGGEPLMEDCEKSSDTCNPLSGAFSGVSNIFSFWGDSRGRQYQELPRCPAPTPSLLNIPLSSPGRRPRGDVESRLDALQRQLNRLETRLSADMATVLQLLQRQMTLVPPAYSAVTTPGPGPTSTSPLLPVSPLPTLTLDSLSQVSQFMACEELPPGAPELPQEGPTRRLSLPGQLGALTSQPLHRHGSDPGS

**Q.** For CCc1cc(Nc2ncc(N3CCN[C@H](C)C3)c(Nc3cc(C)n(C)n3)n2)nc(C)c1F.Cl.Cl [compound 8, (R)-N4-(1,5-dimethyl-1H-pyrazol-3-yl)-N2-(4-ethyl-5-fluoro-6-methylpyridin-2-yl)-5-(3-methylpiperazin-1-yl)pyrimidine-2,4-diamine dihydrochloride], which IC50 (hERG) is on record?
**A.** > 30000 nM

**Q.** And the Papp A→B (Caco2 permeability)?
**A.** 4 ×10⁻⁶ cm/s

**Q.** What about the bioavailability [1] of the same compound?
**A.** 31%

**Q.** And the IC50 (Pf W2)?
**A.** 78.8 ± 7 nM

**Q.** And the IC50 (Pf 7G8)?
**A.** 74.4 ± 17 nM

**Q.** And the IC50 (Pf K1)?
**A.** 64.7 ± 12 nM

**Q.** What about the IC50 (Pf NF54) of the same compound?
**A.** 57.2 ± 20 nM

**Q.** What about the IC50 (Pf SB1) of the same compound?
**A.** 34.7 ± 3 nM

**Q.** And the IC50 (Pf DD2)?
**A.** 38.3 ± 1.5 nM

**Q.** What about the IC50 (α1A adrenoceptor) of the same compound?
**A.** 1300 nM

**Q.** What about the IC50 (Muscarinic M2 receptor) of the same compound?
**A.** 3100 nM

**Q.** And the IC50 [2]?
**A.** 25 nM

**Q.** And the IC50 [3]?
**A.** 30000 nM
